From patent US20050148627A1, “Benzopyran compounds for use in the treatment and prevention of inflammation related conditions” (priority 2003, published 2005)

| melting point | Structure (SMILES) |
| --- | --- |
| 191 to 193 °C | O=C(O)C1=Cc2c(ccc(Cl)c2-c2ccco2)OC1C(F)(F)F (centres unmarked) [Example 867, 6-Chloro-5-(2-furyl)-2-(trifluoromethyl)-2H-chromene-3-carboxylic acid] |
| 143.5 to 146.5 °C | CCCc1ccc(Oc2ccc3c(c2)OC(C(F)(F)F)C(C(=O)O)=C3)cc1 (centres unmarked) [Example 713, 7-(4-Propylphenoxy)-2-(trifluoromethyl)-2H-chromene-3-carboxylic acid] |
